The subject of series [1] is Staphylococcus capitis. Also noted: method as in PMID 11199141. Particulars: cited from earlier work.
The subject of series [2] is Candida albicans. On the set-up: method as in PMID 11199141. To be noted: cited from earlier work.
Series [3] concerns HCoV-229E. Nature of the series: HCoV-229E-Luc infection assay (luciferase) in Huh-7 cells. The series is classed as cell-based. To be noted: Human coronavirus 229E, purified compounds.
The subject of series [4] is HCoV-229E. Nature of the series: HCoV-229E-Luc infection assay (luciferase) in Huh-7/TMPRSS2 cells. The series is classed as cell-based. Particulars: Human coronavirus 229E, purified compounds.
Series [5] can be described thus: in vitro. Particulars: human, Huh-7 cells.
Protocol: The cytotoxicity of 25 crude methanolic extracts was tested on Huh-7 cells using an [3-(4,5-dimethylthiazol-2-yl)-5-(3-carboxymethoxyphenyl)-2-(4-sulfophenyl)-2H-tetrazolium]- based (MTS) viability assay. Huh-7 cells were treated with two different concentrations of the crude methanolic extracts (25 and 100 μg/mL) for 24 h. Non-treated control cells were incubated with 0.1% dimethyl sulfoxide (DMSO) in the media.
Huh-7 cells and Vero-81 cells were seeded in 96-well plates and incubated with 100 μL of culture medium containing increasing concentrations of our compounds for 24 h. An MTS based viability assay (CellTiter 96 aqueous nonradioactive cell proliferation assay, Promega, Madison WI, USA) was performed, as recommended by the manufacturer. The absorbance of formazan at 490 nm was detected using ELx808 plate reader (BioTek Instruments Inc., Winooski, VT, USA). Each measurement was performed in triplicate.
The subject of series [6] is SARS-CoV-2. Nature of the series: microbe, parasite or virus in culture. To be noted: read-out: inhibition of SARS-CoV-2 (N protein levels). The series is classed as cell-based.
Series [7] deals with SARS-CoV-2 Mpro enzyme. Also noted: method as in PMID 35066300. To be noted: cited from earlier work.
The subject of series [8] is hepatitis C virus. Also noted: method as in PMID 30842319. To be noted: cited from earlier work.
Series [9] concerns SARS-CoV-2 spike pseudotyped virus. Particulars: in vitro; cited from earlier work.

pIC50: −log10 of the molar value. Values after ≈ are worked out from the molar mass of the structure shown. Where two headings read alike, the source gives them in different places.

Regarding `CC1(C)CC[C@]2(C(=O)O)CC[C@]3(C)C(=CC[C@@H]4[C@@]5(C)C[C@@H](O)[C@H](OC(=O)/C=C/c6ccc(O)cc6)C(C)(C)[C@@H]5CC[C@]43C)[C@@H]2C1` (relative stereo) [3-β -O-(trans-p-coumaroyl)maslinic acid], the minimum inhibitory concentration in series [1] and in series [2] was 12.5 µg/mL (≈ 20.2 µM) each time.
For orientation: pIC50 means −log10 of the IC50, conventionally taken in molar units. The low end stands for a high IC50, the high end for a low IC50. The term CC50 denotes the concentration at which the toxic effect on the cells reaches its halfway point. The low end stands for harm at low concentration, the high end for better tolerance by the cells. As for `CC1(C)CC[C@]2(C(=O)O)CC[C@]3(C)C(=CC[C@@H]4[C@@]5(C)C[C@@H](OC(=O)/C=C/c6ccc(O)cc6)[C@H](O)C(C)(C)[C@@H]5CC[C@]43C)[C@@H]2C1` [F2-1, 2-O-trans-p-coumaroyl-maslinic acid], the results for the pIC50 in series [3] and in [4] were 5.07 and 5.04, respectively. Moreover, the CC50 at 24 h in series [5] came out at 39.9 µM.
In the same order, the values of `C[C@H]1[C@H](C)CC[C@]2(C(=O)O)CC[C@]3(C)C(=CC[C@@H]4[C@@]5(C)C[C@@H](OC(=O)/C=C/c6ccc(O)cc6)[C@H](O)C(C)(C)[C@@H]5CC[C@]43C)[C@H]12` [F2-2, 3β-hydroxy-2α-trans-p-coumaryloxy-urs-12-en-28-oic acid] are 4.92, 4.94 and 44.4 µM.
In the same order, the values of `C[C@H]1[C@H](C)CC[C@]2(C(=O)O)CC[C@]3(C)C(=CC[C@@H]4[C@@]5(C)C[C@@H](OC(=O)/C=C\c6ccc(O)cc6)[C@H](O)C(C)(C)[C@@H]5CC[C@]43C)[C@H]12` [F2-3, 3β-hydroxy-2α-cis-p-coumaryloxy-urs-12-en-28-oic acid] are 4.84, 4.85 and 52.1 µM.
In general, inhibition refers to the relative decrease from the control value, in per cent. In the case of `CC1(C)CC[C@]2(C(=O)O)CC[C@]3(C)C(=CC[C@@H]4[C@@]5(C)CC[C@H](OC(=O)/C=C/c6ccc(O)c(O)c6)C(C)(C)[C@@H]5CC[C@]43C)[C@@H]2C1` [F4-2, 3-O-trans-caffeoyl-oleanolic acid], the pIC50 in [3] and in series [4] was 4.94 throughout. The compound further yielded a CC50 at 24 h in series [5] of 81.4 µM. In addition, the inhibition at 50 µM in series [6] (Severe acute respiratory syndrome coronavirus 2, 50 µM, Vero-81, 16 h, Western blot) came out at 54%.
Turning to `CC1(C)CC[C@]2(C(=O)O)CC[C@]3(C)C(=CC[C@@H]4[C@@]5(C)CC[C@H](OC(=O)/C=C/c6ccc(O)cc6)C(C)(C)[C@@H]5CC[C@]43C)[C@@H]2C1` [F7-1, 3-O-trans-p-coumaroyl-oleanolic acid], the values for the negative logarithm of the IC50 (pIC50) in series [3] and in series [4] were 4.94 and 4.97, respectively. For the same compound, the CC50 at 24 h in series [5] came to 39.3 µM. For the same compound, in [6] (Severe acute respiratory syndrome coronavirus 2, 16 h), the inhibition at 50 µM came out at 55.5%.
In the case of `C[C@H]1[C@H](C)CC[C@]2(C(=O)O)CC[C@]3(C)C(=CC[C@@H]4[C@@]5(C)CC[C@H](O)C(C)(C)[C@@H]5CC[C@]43C)[C@H]12` [UA, ursolic acid], the “inhibition of SARS-CoV-2 Mpro enzyme activity” value in series [7] was “successfully inhibited its activity”.
`C=Cc1c(C)c(O)cc2ccc3c(C)c(O)ccc3c12` [dehydrojuncusol]: in series [8], the “inhibition of hepatitis C virus replication” value is “inhibitor of hepatitis C virus replication”.
`COc1cc(-c2oc3cc(O)cc(O)c3c(=O)c2O)ccc1O` [isorhamnetin]: the “antiviral activity against SARS-CoV-2 spike pseudotyped virus” value in series [9] is “displayed antiviral activity”.

(Values after publication PMC10705938, “Discovery of Anti-Coronavirus Cinnamoyl Triterpenoids Isolated from Hippophae rhamnoides during a Screening of Halophytes from the North Sea and Channel Coasts in Northern France” (International Journal of Molecular Sciences, 2023).)
